From patent US5360907A, “Pyrrolo[3,2-B]pyridinylalkyl benzamide derivatives” (G.D. Searle & Co., priority 1993, dated 1994)

Biological target: T1, PAF receptor (Homo sapiens, UniProt P25105)
T1 construct: human platelet membrane preparation; tissue Lifesource, Inc. (Glenview, Ill.); host or cells: human packed platelets (membrane preparation)
Assay: Assay A: Human Platelet Receptor Binding (inhibition of specific [^3 H]PAF binding to human platelet membrane preparation)
Conditions: 0.75 nM [^3 H]PAF, human platelet membranes, 30 minutes at 24° C.
Procedure: Compounds of the invention were evaluated for their ability to inhibit specific binding of [^3 H]PAF to human platelet membrane preparation. Human packed platelets were obtained from Lifesource, Inc. (Glenview, Ill.) and washed 3 times with 10 mM Trizma pH 7.0, 2 mM EDTA (dipotassium salt), 150 mM KCl and then once with 10 mM Trizma 7.4, 20 mM CaCl2. The platelets were broken by freezing in a dry ice-ethanol bath, followed by thawing in 24° C. water baths. The preparation was centrifuged (40,000×g, 20 minutes, 4'C) and the pellet suspended in 10 mM Trizma 7.4, 20 mM CaCl2, 5 mg/ml human albumin. Protein concentration in the platelet membrane preparation was determined by the Lowry method [O. H. Lowry et al., J. Biol. Chem., 193, 265-275 (1951)]. Aliquots of the membrane preparation were stored at -70° C. Each preparation was characterized for PAF receptor number and dissociation constant (Kd). In binding assays 5 μl of test compound, solubilized in DMSO, was added to polypropylene tubes along with 0.75 nM [^3 H]PAF and 200 mcl [0.075 nM] of membranes and 95 μl 10 mM Trizma 7.4, 20 mM CaCl2, 5 mg/ml human albumin. Tubes were incubated for 30 minutes at 24° C. The incubation was terminated by adding 4 ml of ice-cold 10 mM Trizma pH 7.4, 20 mM CaCl2 and 20 mg/ml BSA prior to vacuum filtration using Whatman GF/C filters. Filters were prepared and counted for a scintillation counter. All DPM values were corrected for background and isotope decay. Triplicate determinations for single doses were averaged. The amount of non-specific binding was subtracted from all dose averages, giving an amount of specific binding in all cases. The IC50 values for the compounds of the invention were determined by the Allfit program using percent displacement data. (Allfit is a `basic` computer program for simultaneous curve fitting of a family of signoidal dose-response curves using the four parameter logistic equation.) Results are shown in Table I.

T1 sequence (P25105 whole entry): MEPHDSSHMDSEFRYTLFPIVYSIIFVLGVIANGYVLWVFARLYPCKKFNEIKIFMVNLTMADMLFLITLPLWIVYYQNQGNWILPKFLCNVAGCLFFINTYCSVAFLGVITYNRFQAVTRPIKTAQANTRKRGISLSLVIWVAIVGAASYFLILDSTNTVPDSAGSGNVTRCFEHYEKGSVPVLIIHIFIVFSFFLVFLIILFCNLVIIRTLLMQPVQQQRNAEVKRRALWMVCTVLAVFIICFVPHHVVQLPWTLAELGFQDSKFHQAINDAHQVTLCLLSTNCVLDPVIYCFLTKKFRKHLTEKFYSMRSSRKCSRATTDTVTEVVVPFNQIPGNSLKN

Question: `COc1cc(Cn2ccc3ncccc32)ccc1C(=O)N(C(C)C)C1CCCCC1` [Example 3, N-cyclohexyl-2-methoxy-N-(1-methylethyl)-4-(1H-pyrrolo[3,2-b]pyridin-1-ylmethyl)benzamide] was tested. Which IC50 did it give?
Answer: 2 nM

Question: With `CC(C)N(C(=O)c1ccc(Cn2ccc3ncccc32)c(Br)c1)C1CCCCC1` [Example 7, 3-bromo-N-cyclohexyl-N-(1-methylethyl)-4-(1H-pyrrolo[3,2-b]pyridin-1-ylmethyl)benzamide] as the molecule, how does the IC50 read?
Answer: 8 nM

Question: For `COc1cc(C(=O)N(C(C)C)C2CCCCC2)ccc1Cn1ccc2ncccc21` [Example 1, N-cyclohexyl-3-methoxy-N-(1-methylethyl)-4-(1H-pyrrolo[3,2-b]pyridin-1-ylmethyl)benzamide], which IC50 is on record?
Answer: 38 nM

Question: How did the IC50 turn out when `Cc1cc(C(=O)N(C2CCCCC2)C2CCCC2)ccc1Cn1ccc2ncccc21` [Example 6, N-cyclohexyl-N-cyclopentyl-3-methyl-4-(1H-pyrrolo[3,2-b]pyridin-1-ylmethyl)benzamide] was run?
Answer: 39 nM

Question: For `COc1cc(Cn2ccc3ncccc32)ccc1C(=O)N(C1CCCC1)C1CC(C)CC(C)C1` (stereo not shown) [Example 5, N-cyclopentyl-N-(3,5-dimethylcyclohexyl)-2-methoxy-4-(1H-pyrrolo[3,2-b]pyridin-1-ylmethyl)benzamide], which IC50 is on record?
Answer: 15 nM

Question: Which IC50 does the source give for `COc1cc(Cn2ccc3ncccc32)ccc1C(=O)N(C1CCCCC1)C1CCC1` [Example 4, N-cyclobutyl-N-cyclohexyl-2-methoxy-4-(1H-pyrrolo[3,2-b]pyridin-1-ylmethyl)benzamide] here?
Answer: 7 nM

Test system: human platelets
Assay: Assay B: Human Platelet Aggregation Inhibition (PAF-induced aggregation in human platelet-rich plasma)
Type: cell-based
Conditions: 37°
Procedure: Compounds of the invention were evaluated for their ability to inhibit PAF-induced aggregation of human platelets in a human-platelet-rich plasma. Venous blood was collected from donors who fasted for 8 hours and were instructed not to use antiinflammatory drugs for 2 weeks prior to the blood draw. Blood was collected into syringes containing 0.1 ml of 3.8% [w/v] citrate and centrifuged in polypropylene tubes at 150 xg for 20 minutes at room temperature. The platelet rich plasma [PRP] was collected and let sit for 20 minutes at room temperature. Platelet activating factor [PAF] was diluted in 0.9% NaCl with 0.25% bovine serum albumin. Silicon treated cuvettes with stir bars were placed in the 37° heating block of the platelet aggregometer [Bio/Data Corporation, Platelet Aggregation Profiler, Model PAP-4]. PRP and test compound were added to cuvettes and aggregation monitored for 10-15 seconds at 37° with stirring. PAF was added and aggregation monitored for an additional 3 minutes. Peak aggregation was considered the peak of the first aggregation wave, usually 45-60 seconds after PAF addition. Inhibition of aggregation was determined by the following: 1-[(% aggregation in the presence of compound).div.(% maximal aggregation)]. A log/logit transformation was used to determine half maximal inhibitory concentration of a test compound [IC50 ].

Question: `COc1cc(C(=O)N(C(C)C)C2CCCCC2)ccc1Cn1ccc2ncccc21` [Example 1, N-cyclohexyl-3-methoxy-N-(1-methylethyl)-4-(1H-pyrrolo[3,2-b]pyridin-1-ylmethyl)benzamide] was tested. Which IC50 did it give?
Answer: 2 nM
